Where a name gives a salt, the structure may show the parent alone.
Experiments:
[1] = Storage stability, chemical purity by HPLC; type: physicochemical; settings: conclusion from the stability studies
Method: (§1) To determine concentration, solutions were diluted in methanol; to determine purity, 2.7 mg material was dissolved in 1 mL methanol. The conditions listed below were then used. • Instrument: Agilent 1100 • Column: Waters Symmetry C18 5μ 150×3.9 mm column • Column Temperature: 25° C. • Autosampler Temperature: Not controlled • UV wavelength: 254 nm • Injection Volume: 3 μL • Flow Rate: 1.2 mL/min • Mobile Phase A: 0.01% formic acid in water • Mobile Phase B: 0.01% formic acid in ACN • Gradient program: […]
In order to assess physical and chemical stability, Ponatinib HCl crystal form 1 obtained by direct crystallization according to example 4, and the crystalline ponatinib HCl Form 1 which was obtained via Form 8 according to example 7, were stored at 25° C./60%RH and 40° C./75% RH. After 1 week, the three samples were analysed by XRPD and HPLC (chemical purity).

[2] = Aqueous solubility by HPLC analysis; type: physicochemical; settings: water, thermodynamic from solid
Method: as §1
A filtered solution of ponatinib HCl in acetonitrile/water (1:1) was allowed to slowly evaporate at ambient temperature. A hydrated crystal form 8 showing characteristic peaks at 6.21 and 10.5 2Theta was found. Approximately 11.4% water content was found by KF analysis. […] (peak at 90° C.).
A filtered solution of ponatinib HCl in acetone/water (1:1) was allowed to slowly evaporate. A hydrated crystal form 8 showing characteristic peaks at 6.21 and 10.5 2Theta was found. Approximately 11.4% water content was found by KF analysis. […] (peak at 90° C.).
Ponatinib HCl form 1 was slurried in water for 24 h at 22° C. A hydrated crystal form 8 showing characteristic peaks at 6.21 and 10.5 2Theta was found. Approximately 11.4% water content was found by KF analysis. […] (peak at 90° C.).

Structure (SMILES): Cc1ccc(C(=O)Nc2ccc(CN3CCN(C)CC3)c(C(F)(F)F)c2)cc1C#Cc1cnc2cccnn12 [Form 1 via form 8, ponatinib hydrochloride]
- chemical stability compared with form 1 obtained by direct crystallization [1]: higher chemical stability

Structure (SMILES): Cc1ccc(C(=O)Nc2ccc(CN3CCN(C)CC3)c(C(F)(F)F)c2)cc1C#Cc1cnc2cccnn12 [Form 8, ponatinib hydrochloride]
- solubility [2]: 620 µg/mL

— US9725454B2, “Crystalline forms of ponatinib hydrochloride” (SANDOZ AG, priority 2013, dated 2017)
